In patent EP0266640A2 (Euro-Celtique S.A., priority 1986, dated 1988):

Test system: asthmatic patients
Experiment: controlled triple-cross-over clinical study, body plethysmographic test of lung function (RAW, FEV1), with pulse and blood pressure
Format: in vivo
Description: In a controlled triple-cross-over study, in a body phlethysmographic test of the lung function, the effectiveness of and tolerance to the individual substances compared to the combination were investigated.
The investigation was carried out on three in-patients with chronic-obstructive airway diseases.
The associated medication with dosing aerosols was reduced to a minimum and noted in a special test report. It was ensured that no aerosol was used at least eight hours prior to each lung function investigation.
The medication sequence was randomised, with a wash-out-phase of two days after each medication.
It was ensured that all the patients had received no xanthine 24 hours before the controlled investigation (lung function test and determination of reversibility).
The lung function (RAW and FEV₁) and the pulse of the patients were measured on the first and third day always at the same time of day, as shown in Fig. 3. On the third day of the investigation, after the final measurement of lung function, the reversibility was again determined, 15 minutes after inhalation of 400 microgram Fenoterol.

Cn1c(=O)c2[nH]cnc2n(C)c1=O [Theophylline, 1,3-dimethylxanthine]
remaining reversibility (further improvement by inhalation of the dosing aerosol) (third day, after inhalation of 400 microgram Fenoterol, 10 mg Nifedipine alone or 300 mg Theophylline alone twice daily): still left a considerable further improvement

CC(Cc1ccc(O)cc1)NCC(O)c1cc(O)cc(O)c1 (stereo not shown) [Fenoterol]
rise of FEV₁ mean-value (reversibility) (start of investigation, after inhalation of 400 microgram): 45%
FEV₁ mean-value (start of investigation, after inhalation of 400 microgram, baseline ca. 1,5 l): ca. 2.2 l
reduction of airway resistance (reversibility) (start of investigation, after inhalation of 400 microgram, referred to the initial value): 50%
